Assays:
C57/BL6 mice = assay: Example 47: luciferase mRNA IM, SC, IV in mice, bioluminescence imaging (Tables 76-78); format: in vivo
Description: Modified RNA was delivered to C57/BL6 mice intramuscularly, subcutaneously, or intravenously to evaluate the bio-distribution of modified RNA using luciferase. A formulation buffer used with all delivery methods contained 150 mM sodium chloride, 2 mM calcium chloride, 2 mM Na+-phosphate which included 1.4 mM monobasic sodium phosphate and 0.6 mM of dibasic sodium phosphate, and 0.5 mM ethylenediaminetetraacetic acid (EDTA) was adjusted using sodium hydroxide to reach a final pH of 6.5 before being filtered and sterilized. A 1× concentration was used as the delivery buffer. To create the lipoplexed solution delivered to the mice, in one vial […] was equilibrated for 10 minutes at room temperature in the delivery buffer and in a second vial 10 μl RNAiMAX™ was equilibrated for 10 minutes at room temperature in the delivery buffer. After equilibrium, the vials were combined and delivery buffer was added to reach a final volume of 100 μl which was then incubated for 20 minutes at room temperature. Luciferin was administered by intraperitoneal injection (IP) at 150 mg/kg to each mouse prior to imaging during the plateau phase of the luciferin exposure curve which was between 15 and 30 minutes. To create luciferin, 1 g of D-luciferin potassium or sodium salt was dissolved in 66.6 ml of distilled phosphate buffer solution (DPBS), not containing Mg2+ or Ca2+, to make a 15 mg/ml solution. The solution was gently mixed and passed through a 0.2 μm syringe filter, before being purged with nitrogen, aliquoted and frozen at −80° C. while being protected from light as much as possible. The solution was thawed using a waterbath if luciferin was not dissolved, gently mixed and kept on ice on the day of dosing.
Whole body images were taken of each mouse 2, 8 and 24 hours after dosing. Tissue images and serum was collected from each mouse 24 hours after dosing. Mice administered doses intravenously had their liver, spleen, kidneys, lungs, heart, peri-renal adipose tissue and thymus imaged. Mice administered doses intramuscularly or subcutaneously had their liver, spleen, kidneys, lungs, peri-renal adipose tissue, and muscle at the injection site. From the whole body images the bioluminescence was measured in photon per second for each route of administration and dosing regimen.
The bioluminescence average for the luciferase expression signals for each group at 2, 8 and 24 hours after dosing are shown in Table 76.
(§1) Mice were subcutaneously (S.C.) administered either modified luciferase mRNA (Naked-Luc), lipoplexed modified luciferase mRNA (Lipoplex-luc), lipoplexed modified G-CSF mRNA (Lipoplex-G-CSF) or the formation buffer at a single dose of 50 μg of modified mRNA in an injection volume of 100 μl for each formulation. The bioluminescence average for the luciferase expression signals for each group at 2, 8 and 24 hours after dosing are shown in Table 77.
as §1, with “intravenously (I.V.)” for “subcutaneously (S.C.)”, “signal in the spleen from” for “signals for”, “2” for “2, 8 and 24”, “is” for “are”, “78.” for “77.”

Balb-C mice = assay: Example 117: repeat dose luciferase KC2 LNP IM, IV, live and tissue imaging (Tables 192-200); format: in vivo; settings: luciferase mRNA in PBS, IM 2.50 mg/kg
Description: “TM-2” means the groups were administered with 2 doses, administered 24 hours apart, “IV” means intravenous administration, “TV-1” means the groups were administered a single dose tail vein injection and “TV-2” means the groups were administered with 2 doses, administered 7 days apart. 2 groups of untreated Balb-C mice (n=3) were also evaluated. Groups 1, 3 and 7 were injected in the right leg and administration was repeated but into the left leg with 24 hours between injections. Groups 2, 4, and 9 were administered the mRNA in the right leg followed by repeat administration in the right leg with 24 hours between injections for Group 2 and 7 days between injections for Groups 4 and 9.
The final lipid molar ratio ranges of DLin-KC2-DMA, DSPC, cholesterol and PEG-DMG for the KC2 LNP are outlined in Table 194. The weight ratio of total lipid to mRNA was 20:1, the mean size was 95 nm (PDI: 0.11), the zeta at pH 7.4 was −1.0 mV and the encapsulation (RiboGreen) was essentially 100%.
Live imaging mice were imaged at 8 hours post-administration of each dose of luciferase modified mRNA and tissue imaging mice imaged 8 post-administration of the final dose of luciferase modified mRNA. Twenty minutes prior to imaging, the mice were injected intraperitoneally with a D-luciferin solution at 150 mg/kg. Animals were then anesthetized and images were acquired with an IVIS Lumina II imaging system (Perkin Elmer). For the tissue imaging mice (Groups 6-9), the mice were dissected twenty minutes after the D-luciferin injection and organs and tissue were subsequently imaged (muscle around injection site, liver and spleen for Groups 6 and 7 and were subsequently imaged the liver and spleen for Groups 8 and 9). Bioluminescence was measured as total flux (photons/second) of the mid-section and the entire mouse (IV administration), the injection site (IM administration), or the entire organ (tissue imaging).

mice = assay: Example 40: multi-site IM/SC G-CSF mRNA in mice, neutrophil count (Table 65); format: in vivo; settings: intramuscular, day 3
Description: Injection of four doses or 2×50 ug (two sites) daily for three days (24 hrs interval) was performed. The fourth dose was administered 6 hrs before blood collection and CBC analysis. […] The mice were bled at 72 hours after the first mRNA injection (6 hours after the last mRNA dose) to determine the effect of mRNA-encoded human G-CSF on the neutrophil count. The dosing regimen is shown in Table 65 as are the resulting neutrophil counts (thousands/uL). In Table 65, an asterisks (*) indicate statistical significance at p<0.05.

BALB/C mice = assay: Example 59: G-CSF mRNA IM in mice, serum human G-CSF and mouse IFN-alpha ELISA (Table 93); format: in vivo
C57BL/6 [1] = assay: Example 116: mouse EPO mRNA in mannitol multi-dose, serum EPO (Table 186); format: in vivo, mice; settings: mouse EPO mRNA in 5% isotonic Mannitol, IM 2.5 mg/kg per dose
Description: Serum was collected from the mice at 24 hours post the second, fourth, sixth and eighth doses.

C57BL/6 [2] = assay: Example 114: mouse EPO mRNA electroporation multi-dose, serum EPO (Tables 183, 184); format: in vivo, mice; settings: mouse EPO mRNA in PBS, IM 0.2 mg/kg per dose with EP
Description: Serum was collected from the mice at 24 hours post the first, second, third and fourth doses.

[3] = I.M., 200 ug/mouse (R848 75 ug/mouse), 50 ul, 8 hours after dosing
[4] = serum 24 hours post fourth dose
[5] = serum 24 hours post second dose

Q: Which Bioluminescence (C57/BL6 mice; I.M., Dose 5 ug, 2 hours) does the source give for “Luciferase: luciferase mRNA, SEQ ID NO: 14, Cap1, fully modified with 5-methylcytosine and pseudouridine” here?
A: The Bioluminescence was 224,000 photon/sec.

Q: What about the Bioluminescence (C57/BL6 mice; I.M., Dose 5 ug, 8 hours) of the same molecule?
A: Its Bioluminescence is 683,000 photon/sec.

Q: What about the Bioluminescence (C57/BL6 mice; I.M., Dose 5 ug, 24 hours) of the same molecule?
A: The Bioluminescence was 927,000 photon/sec.

Q: What about the Bioluminescence (C57/BL6 mice; I.M., Dose 50 ug, 2 hours) of the same molecule?
A: The Bioluminescence was 446,000 photon/sec.

Q: And the Bioluminescence (C57/BL6 mice; I.M., Dose 50 ug, 8 hours)?
A: The Bioluminescence was 766,000 photon/sec.

Q: And the Bioluminescence (C57/BL6 mice; I.M., Dose 50 ug, 24 hours)?
A: The Bioluminescence was 509,000 photon/sec.

Q: And the “Bioluminescence of the Spleen” value (C57/BL6 mice; I.V., 50 μg, 2 hours after dosing)?
A: Its value is 58,400 photon/sec.

Q: And the Bioluminescence (C57/BL6 mice; S.C., 50 μg, 2 hours)?
A: Its Bioluminescence is 3,700,000 photon/sec.

Q: And the Bioluminescence (C57/BL6 mice; S.C., 50 μg, 8 hours)?
A: The Bioluminescence was 8,060,000 photon/sec.

Q: And the Bioluminescence (C57/BL6 mice; S.C., 50 μg, 24 hours)?
A: Its Bioluminescence is 2,080,000 photon/sec.

Q: And the “Expression (Flux (p/s))” value (Balb-C mice; Dose 1, Dosed Right limb)?
A: The value was 6.71E+06 p/s.

Q: And the “Expression (Flux (p/s))” value (Balb-C mice; Dose 1, Undosed Left limb)?
A: The value was 2.28E+05 p/s.

Q: What about the “Expression (Flux (p/s))” value (Balb-C mice; Dose 2, Dosed Left limb) of the same molecule?
A: The value was 1.16E+07 p/s.

Q: And the “Expression (Flux (p/s))” value (Balb-C mice; Dose 2, Undosed Right limb)?
A: The value was 2.44E+07 p/s.

B1: G-CSF: modified mRNA encoding human G-CSF, SEQ ID NO: 4, Cap1, fully modified with 5-methylcytosine and pseudouridine; LNP-formulated in Examples 16-22 (nucleic acid)
chain: GGGAAAUAAGAGAGAAAAGAAGAGUAAGAAGAAAUAUAAGAGCCACCAUGGCCGGUCCCGCGACCCAAAGCCCCAUGAAACUUAUGGCCCUGCAGUUGCUGCUUUGGCACUCGGCCCUCUGGACAGUCCAAGAAGCGACUCCUCUCGGACCUGCCUCAUCGUUGCCGCAGUCAUUCCUUUUGAAGUGUCUGGAGCAGGUGCGAAAGAUUCAGGGCGAUGGAGCCGCACUCCAAGAGAAGCUCUGCGCGACAUACAAACUUUGCCAUCCCGAGGAGCUCGUACUGCUCGGGCACAGCUUGGGGAUUCCCUGGGCUCCUCUCUCGUCCUGUCCGUCGCAGGCUUUGCAGUUGGCAGGGUGCCUUUCCCAGCUCCACUCCGGUUUGUUCUUGUAUCAGGGACUGCUGCAAGCCCUUGAGGGAAUCUCGCCAGAAUUGGGCCCGACGCUGGACACGUUGCAGCUCGACGUGGCGGAUUUCGCAACAACCAUCUGGCAGCAGAUGGAGGAACUGGGGAUGGCACCCGCGCUGCAGCCCACGCAGGGGGCAAUGCCGGCCUUUGCGUCCGCGUUUCAGCGCAGGGCGGGUGGAGUCCUCGUAGCGAGCCACCUUCAAUCAUUUUUGGAAGUCUCGUACCGGGUGCUGAGACAUCUUGCGCAGCCGUGAAGCGCUGCCUUCUGCGGGGCUUGCCUUCUGGCCAUGCCCUUCUUCUCUCCCUUGCACCUGUACCUCUUGGUCUUUGAAUAAAGCCUGAGUAGGAAG
modifications: Cap1, 5-methylcytosine, pseudouridine
Q: Which “increase in neutrophil count above control” value (mice) does the source give for B1 here?
A: The value was “four fold increase”.

Q: And the “G-CSF protein (human, serum)” value (BALB/C mice; [3])?
A: Its value is 356.5 pg/mL.

Q: And the “IFN-alpha expression (mouse, serum)” value (BALB/C mice; [3])?
A: The value was 8.87 pg/mL.

Q: What about the “PC Ratio (Protein: Cytokine Ratio)” value (BALB/C mice; I.M., 200 ug/mouse (R848 75 ug/mouse), 8 hours after dosing) of the same molecule?
A: The value was 40.

Q: What about the “mouse IFN-alpha in the serum (cytokine response)” value (BALB/C mice; IM, 8 hours) of the same molecule?
A: The value was “low but detectable cytokine response”.

B2: EPO: modified mRNA encoding human erythropoietin, SEQ ID NO: 7, Cap1, fully modified with 5-methylcytosine and pseudouridine; LNP NPA-060-1 in Examples 17-22 (nucleic acid)
chain: GGGAAAUAAGAGAGAAAAGAAGAGUAAGAAGAAAUAUAAGAGCCACCAUGGGAGUGCACGAGUGUCCCGCGUGGUUGUGGUUGCUGCUGUCGCUCUUGAGCCUCCCACUGGGACUGCCUGUGCUGGGGGCACCACCCAGAUUGAUCUGCGACUCACGGGUACUUGAGAGGUACCUUCUUGAAGCCAAAGAAGCCGAAAACAUCACAACCGGAUGCGCCGAGCACUGCUCCCUCAAUGAGAACAUUACUGUACCGGAUACAAAGGUCAAUUUCUAUGCAUGGAAGAGAAUGGAAGUAGGACAGCAGGCCGUCGAAGUGUGGCAGGGGCUCGCGCUUUUGUCGGAGGCGGUGUUGCGGGGUCAGGCCCUCCUCGUCAACUCAUCACAGCCGUGGGAGCCCCUCCAACUUCAUGUCGAUAAAGCGGUGUCGGGGCUCCGCAGCUUGACGACGUUGCUUCGGGCUCUGGGCGCACAAAAGGAGGCUAUUUCGCCGCCUGACGCGGCCUCCGCGGCACCCCUCCGAACGAUCACCGCGGACACGUUUAGGAAGCUUUUUAGAGUGUACAGCAAUUUCCUCCGCGGAAAGCUGAAAUUGUAUACUGGUGAAGCGUGUAGGACAGGGGAUCGCUGAUAAGCUGCCUUCUGCGGGGCUUGCCUUCUGGCCAUGCCCUUCUUCUCUCCCUUGCACCUGUACCUCUUGGUCUUUGAAUAAAGCCUGAGUAGGAAG
modifications: Cap1, 5-methylcytosine, pseudouridine
Q: Which results are given for B2?
A: Eighth Dose EPO (C57BL/6 [1]; serum 24 hours post eighth dose): 239.3 pg/mL; Fourth Dose EPO (C57BL/6 [1]; [4]): 483.4 pg/mL; Second Dose EPO (C57BL/6 [1]; [5]): 334.7 pg/mL; Sixth Dose EPO (C57BL/6 [1]; serum 24 hours post sixth dose): 328.9 pg/mL; First Dose EPO (C57BL/6 [2]; serum 24 hours post first dose): 151.9 pg/mL; Fourth Dose EPO (C57BL/6 [2]; [4]): 258.1 pg/mL; Second Dose EPO (C57BL/6 [2]; [5]): 357.8 pg/mL; Third Dose EPO (C57BL/6 [2]; serum 24 hours post third dose): 898.5 pg/mL
